Reference: patent US11014898B1, “Benzothiazepine compounds and their use as bile acid modulators” (Albireo AB, priority 2020, dated 2021)

Experiments:
[1] = Bidirectional permeability assay (Caco-2 cells); format: in vitro ADME; settings: human, Caco-2, pH 7.4, 10 μM in FaSSIF buffer, 120 minutes at 37° C.; for Papp A→B at 120 min, 10 μM: absorptive direction (A2B); for Papp B→A at 120 min, 10 μM: secretory direction (B2A)
Procedure: Caco-2 cells (Evotec) were seeded at a density of 70,000 cells/well in Millicell® 24-well cell culture insert plates and maintained in an incubator (37° C., 5% CO2, 95% RH) for 21 days with media change on alternate days.
Stock solutions (10 mM) of the test compounds, atenolol (low permeability marker), propranolol (high permeability marker) and digoxin (substrate for P-gp transport pathway) were prepared in dimethylsulfoxide (DMSO). An intermediate stock solution (1 mM) was prepared by diluting 10 μL of 10 mM master stock solution with 90 μL of neat DMSO. A working stock solution (10 μM) was prepared by diluting 50 μL of 1 mM with 4950 μL of FaSSIF buffer. Post addition of compounds to the FaSSIF, samples were subjected to sonication for 2 hours, and centrifuged at 4000 RPM for 30 minutes at 37° C. The 4 mL of resultant supernatant was directly used in the assay. The final DMSO concentration in the transport experiments was 1%.
On the day of assay, Caco-2 monolayers were washed twice with transport buffer (HBSS, pH 7.4) and pre-incubated for 30 min (37° C., 5% CO2, 95% RH) in an incubator. The electrical resistance of the monolayers was measured with a Millicell®-ERS system. Monolayers with trans-epithelial electrical resistance (TEER) values greater than 350 ohm·cm^2 were selected for the assay.
The assay was conducted in absorptive direction (A2B) and secretory (B2A) directions. Transport experiments were initiated by addition of transport assay buffer (FaSSIF buffer prepared in HBSS) consisting of compounds to the donor compartment (apical chamber A-B; basolateral chamber B-A) in duplicate (n=2) wells. Drug free HBSS buffer (pH 7.4) containing 1% bovine serum albumin (BSA) was introduced to the receiver (A-B-basolateral; B-A-Apical) compartments. The volumes of apical and basolateral compartments were 0.4 and 0.8 mL, respectively. After adding dosing solution, plates were incubated in an incubator for 120 minutes at 37° C. After 120 minutes, donor and receiver samples were collected and matrix matched (1:1, 30 μL study sample+30 μL blank buffer) with the opposite buffer. Dosing samples matrix matched (1:1, 30 μL study sample+30 μL blank buffer) with the opposite buffer. Samples were processed by adding acetonitrile containing internal standard (60 μL study sample+200 μL acetonitrile containing internal standard-Tolbutamide, 500 ng/mL). Samples were vortexed and centrifuged at 4000 rpm for 10 minutes. The obtained supernatant (100 μL) was diluted with 100 μL of water and transferred to fresh 96 well plates. The concentration of compounds in the samples was analyzed by liquid chromatography tandem mass spectrometry (LC-MS/MS) method using discovery grade bio-analytical method, as applicable.
The mean apparent permeability (Papp×10^−6 cm/sec) of the test compounds, atenolol, propranolol and digoxin were calculated as follows:
where dq/dt=rate of transport (rate of transport of compound in the receiver compartment), C0=initial concentration in the donor compartment, A=surface area of the effective filter membrane.

Human IBAT = biological target: T1, Human IBAT (Homo sapiens, UniProt Q12908); test: IBAT (h) assay: 3H-taurocholic acid uptake in human IBAT-overexpressing cells; format: cell-based; settings: 0.25 μM 3H-taurocholic acid and 5 μM cold taurocholic acid, 20 minutes, read-out: hIBAT IC50
T1 construct: expressed in transfected cells; cells kept under Puromycin selection
T1 sequence (Q12908 1-348): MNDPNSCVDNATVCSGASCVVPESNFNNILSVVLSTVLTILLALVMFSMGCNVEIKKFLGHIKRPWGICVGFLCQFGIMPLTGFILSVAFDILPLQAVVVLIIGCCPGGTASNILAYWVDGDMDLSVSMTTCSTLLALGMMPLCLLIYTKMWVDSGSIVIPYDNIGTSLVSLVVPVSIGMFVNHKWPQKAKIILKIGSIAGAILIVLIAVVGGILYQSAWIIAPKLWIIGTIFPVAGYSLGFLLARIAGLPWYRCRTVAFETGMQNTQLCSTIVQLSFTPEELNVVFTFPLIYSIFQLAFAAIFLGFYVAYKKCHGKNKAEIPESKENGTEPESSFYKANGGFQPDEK
Procedure: 10,000 cells (Human or Mouse IBAT-overexpressing cells) were seeded in 96-wells plate (Corning CLS3809) in 200 μL MEM-alpha medium (Gibco 12571-063) supplemented with 10% FBS (Gibco 10438026) containing Puromycin (Gibco A1113803) (10 μg/mL) and incubated at 37° C. in 5% CO2 for 48 hours. After incubation, media was decanted from the wells and cells were washed two times with 300 μL of basal MEM-alpha medium (FBS-free). After decanting basal MEM-alpha medium each time, plates were tapped against paper towel to ensure maximum removal of residual media. Test inhibitor dilutions (highest test concentration being 10 μM, 3-fold serial dilution, 10 points) prepared in DMSO (Sigma D2650) were added in incubation mix (maintaining 0.2% final DMSO concentration) containing 0.25 μM 3H-taurocholic acid (ARC ART-1368) and 5 μM of cold taurocholic acid (Sigma T4009). 50 μL of incubation mix containing test inhibitors was then added to the wells (in duplicate) and the plates were incubated for 20 minutes in a CO2 incubator at 37° C. After incubation, the reaction was stopped by keeping the plates on ice water mix for 2-3 minutes and then the incubation mix was aspirated completely from the wells. The wells were washed two times with 250 μL of chilled unlabelled 1 mM taurocholic acid dissolved in HEPES (Gibco 15630080)-buffered (10 mM) HBSS (Gibco 14175079) (pH 7.4). The plates were tapped against a paper towel after every wash to ensure maximum removal of blocking buffer.
100 μL of MicroScint-20 (PerkinElmer 6013621) was added to the wells and kept overnight at room temperature before reading the plates in TopCount NXT™ Microplate Scintillation and Luminescence Counter from PerkinElmer under 3H Test protocol (set at 120 seconds reading time per well).
All test compounds were provided in powder form at room temperature. 10 mM DMSO stocks of the test compounds were prepared, aliquoted and stored at −20° C. From the 10 mM DMSO stock of the compounds, a 3-fold serial dilution in DMSO was prepared to get a total of 10 dilutions of the test compounds. 0.5 μL of this dilution in DMSO was added to 250 μL of FBS-free basal media containing 3H-taurocholic acid and cold taurocholic acid to prepare the incubation mixture.

[2] = Bioavailability studies (iv and oral dosing, plasma LC-MS/MS); format: in vivo, mice (C57BL/6); settings: male, mouse, C57BL/6 mice, single oral dose of 10 mg/kg, single intravenous dose of 1 mg/kg
Procedure: Male mice (C57BL/6 or CD1) or Wistar rats of 8-9 weeks old were used. For each test compound, two groups of 3 animals each were used. One group was administered a single intravenous dose of 1 mg/kg (vehicle 100% DMSO) through the tail vein and the other group was administered a single oral dose of 10 mg/kg through gavage needle. The group that was administered an oral dose was fasted overnight. Blood samples were collected after 0.083, 0.25, 0.5, 1, 2, 4, 6, 8 and 24 hours following intravenous administration, and after 0.25, 0.5, 1, 2, 4, 6, 8 and 24 hours following oral administration. Blood samples were taken from saphenous vein. 0.2% EDTA was used as the anticoagulant. The samples were analyzed by a discovery grade bioanalytical method developed for the estimation of test compound in plasma, using an LC-MS/MS system.

Papp A→B at 120 min, 10 μM [1] [×10⁻⁶ cm/s]	Papp B→A at 120 min, 10 μM [1] [×10⁻⁶ cm/s]	IC50 (Human IBAT) [nM]	bioavailability [2] [%]	SMILES
7.9	23.7	9	26	CCCCC1(CC)CN(c2ccccc2)c2cc(N(C)C)c(OCC(=O)O)cc2S(=O)(=O)C1 (single isomer, unassigned) [Example 8, 2-((3-butyl-7-(dimethylamino)-3-ethyl-1,1-dioxido-5-phenyl-2,3,4,5-tetrahydro-1,5-benzothiazepin-8-yl)oxy)acetic Acid]
5.5	14.5	58	6	CCCCC1(CCCC)CN(c2ccc(C#N)cc2)c2cc(SC)c(OCC(=O)O)cc2S(=O)(=O)C1 [Example 5, 2-((3,3-dibutyl-5-(4-cyanophenyl)-7-(methylthio)-1,1-dioxido-2,3,4,5-tetrahydro-1,5-benzothiazepin-8-yl)oxy)acetic Acid]
